Assays:
Format in all cases: in vivo
[1] = test system: Echinochloa (Ds); experiment: Pre-emergence herbicidal action (Example B1); conditions: 1000 g of active ingredient/ha, after 4 weeks, scale of nine ratings
Protocol: (§1) Monocotyledonous and dicotyledonous test plants are sown in standard soil in pots. Immediately after sowing, the test compounds, in the form of an aqueous suspension (prepared from a wettable powder (Example F3, b) according to WO 97/34485) or in the form of an emulsion (prepared from an emulsifiable concentrate (Example F1, c) according to WO 97/34485), are applied by spraying in an optimum concentration (500 litres of water/ha). The test plants are then grown in a greenhouse under optimum conditions. After a test duration of 4 weeks, the test is evaluated in accordance with a scale of nine ratings (1=total damage, 9=no action). Ratings of from 1 to 4 (especially from 1 to 3) indicate good to very good herbicidal action. Test plants: Panicum, Echinochloa (Ds), Amaranthus, Chenopodium, Stellaria, Veronica.

[2] = test system: Panicum; experiment: Pre-emergence herbicidal action (Example B1); conditions: 1000 g of active ingredient/ha, after 4 weeks, scale of nine ratings
Protocol: as §1

[3] = test system: Veronica; experiment: Pre-emergence herbicidal action (Example B1); set-up: key: 1=total damage; 9=no action; Ratings of from 1 to 4 (especially from 1 to 3) indicate good to very good herbicidal action; conditions: 1000 g of active ingredient/ha, after 4 weeks, scale of nine ratings
Protocol: as §1

[4] = test system: Stellaria; experiment: Pre-emergence herbicidal action (Example B1); set-up: key: 1=total damage; 9=no action; Ratings of from 1 to 4 (especially from 1 to 3) indicate good to very good herbicidal action; conditions: 1000 g of active ingredient/ha, after 4 weeks, scale of nine ratings
Protocol: as §1

[5] = test system: Chenopodium; experiment: Pre-emergence herbicidal action (Example B1); set-up: key: 1=total damage; 9=no action; Ratings of from 1 to 4 (especially from 1 to 3) indicate good to very good herbicidal action; conditions: 1000 g of active ingredient/ha, after 4 weeks, scale of nine ratings
Protocol: as §1

[6] = test system: Amaranthus; experiment: Pre-emergence herbicidal action (Example B1); set-up: key: 1=total damage; 9=no action; Ratings of from 1 to 4 (especially from 1 to 3) indicate good to very good herbicidal action; conditions: 1000 g of active ingredient/ha, after 4 weeks, scale of nine ratings
Protocol: as §1

[7] = test system: Veronica; experiment: Post-emergence herbicidal action (Example B2); conditions: post-emergence (2- to 3-leaf stage), 1000 g of active ingredient/ha, after 2 to 3 weeks, scale of nine ratings
Protocol: as §1, with “pots. When the test plants are at the 2- to 3-leaf stage,” for “pots. Immediately after sowing,”, “grown on” for “grown”, “of 2 to 3” for “of 4”, “Panicum, Euphorbia,” for “Panicum, Echinochloa (Ds),”

[8] = test system: Euphorbia; experiment: Post-emergence herbicidal action (Example B2); conditions: post-emergence (2- to 3-leaf stage), 1000 g of active ingredient/ha, after 2 to 3 weeks, scale of nine ratings
Protocol: as §1, with “pots. When the test plants are at the 2- to 3-leaf stage,” for “pots. Immediately after sowing,”, “grown on” for “grown”, “of 2 to 3” for “of 4”, “Panicum, Euphorbia,” for “Panicum, Echinochloa (Ds),”

[9] = test system: Stellaria; experiment: Post-emergence herbicidal action (Example B2); conditions: post-emergence (2- to 3-leaf stage), 1000 g of active ingredient/ha, after 2 to 3 weeks, scale of nine ratings
Protocol: as §1, with “pots. When the test plants are at the 2- to 3-leaf stage,” for “pots. Immediately after sowing,”, “grown on” for “grown”, “of 2 to 3” for “of 4”, “Panicum, Euphorbia,” for “Panicum, Echinochloa (Ds),”

[10] = test system: Chenopodium; experiment: Post-emergence herbicidal action (Example B2); set-up: key: 1=total damage; 9=no action; Ratings of from 1 to 4 (especially from 1 to 3) indicate good to very good herbicidal action; conditions: post-emergence (2- to 3-leaf stage), 1000 g of active ingredient/ha, after 2 to 3 weeks, scale of nine ratings
Protocol: as §1, with “pots. When the test plants are at the 2- to 3-leaf stage,” for “pots. Immediately after sowing,”, “grown on” for “grown”, “of 2 to 3” for “of 4”, “Panicum, Euphorbia,” for “Panicum, Echinochloa (Ds),”

[11] = test system: Amaranthus; experiment: Post-emergence herbicidal action (Example B2); set-up: key: 1=total damage; 9=no action; Ratings of from 1 to 4 (especially from 1 to 3) indicate good to very good herbicidal action; conditions: post-emergence (2- to 3-leaf stage), 1000 g of active ingredient/ha, after 2 to 3 weeks, scale of nine ratings
Protocol: as §1, with “pots. When the test plants are at the 2- to 3-leaf stage,” for “pots. Immediately after sowing,”, “grown on” for “grown”, “of 2 to 3” for “of 4”, “Panicum, Euphorbia,” for “Panicum, Echinochloa (Ds),”

## COc1cc(F)ccc1OCC#Cc1ccc(Cl)nc1 [1.004, 2-Chloro-5-[3-(4-fluoro-2-methoxy-phenoxy)-prop-1-ynyl]-pyridine]
[1]
  Echinochloa (Ds), herbicidal rating: 2
[2]
  Panicum, herbicidal rating: 2
[3]
  Veronica, herbicidal rating: 1
[4]
  Stellaria, herbicidal rating: 1
[5]
  Chenopodium, herbicidal rating: 1
[6]
  Amaranthus, herbicidal rating: 1
[7]
  Veronica, herbicidal rating: 2
[8]
  Euphorbia, herbicidal rating: 2
[9]
  Stellaria, herbicidal rating: 2
[10]
  Chenopodium, herbicidal rating: 1
[11]
  Amaranthus, herbicidal rating: 1
